# Source: patent US6906205B2, “Spiro and dispiro 1,2,4-trioxolane antimalarials” (Medicines for Malaria Venture MMV, priority 2002, dated 2005)
# System: ANKA strain of P. berghei
# Experiment: single dose STI in vivo screen in infected mice
# Set-up: species or system Plasmodium berghei
# Settings: percent reduction in parasitemia day 3 post-infection; single 10 mg/kg po in 3% ethanol and 7% Tween 80; mice
# How it was run: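 Groups of 3-5 Moro SPF or NMRI mice infected with the ANKA strain of P. berghei received a single dose of trioxolane on day one post-infection. The compound was given in 3% ethanol and 7% Tween 80 or in SSV (0.5% w/v CMC, 0.5% v/v benzyl alcohol, 0.4% v/v Tween 80, 0.9% w/v sodium chloride in water). Antimalarial activity was scored as percent reduction in parasitemia on day three and as survival time versus untreated controls. Survival to day 30 counted as cure.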
row,Compound,Activity (%) po
1,CC1(C)CCC2(CC1)OOC1(O2)C2CC3CC(C2)CC1C3 (stereo not drawn) [OZ33],80%
2,c1ccc(CNC2CCC3(CC2)OOC2(O3)C3CC4CC(C3)CC2C4)cc1 (stereo not drawn) [OZ160],45%
3,CC1(C)COC2(CCC3(CC2)OOC2(O3)C3CCCC2CCC3)OC1 (stereo not drawn) [OZ68],1%
4,O=C(CO)N1CCC2(CC1)OOC1(O2)C2CC3CC(C2)CC1C3 (stereo not drawn) [OZ83],92%

# Same assay, conditions: percent reduction in parasitemia day 3 post-infection; single 10 mg/kg sc in 3% ethanol and 7% Tween 80; mice
row,Compound,Activity (%) sc
1,CC1(C)CCC2(CC1)OOC1(O2)C2CC3CC(C2)CC1C3 (stereo not drawn) [OZ33],99.97%
2,c1ccc(CNC2CCC3(CC2)OOC2(O3)C3CC4CC(C3)CC2C4)cc1 (stereo not drawn) [OZ160],99.94%
3,CC1(C)COC2(CCC3(CC2)OOC2(O3)C3CCCC2CCC3)OC1 (stereo not drawn) [OZ68],6%
4,O=C(CO)N1CCC2(CC1)OOC1(O2)C2CC3CC(C2)CC1C3 (stereo not drawn) [OZ83],99.8%

# Same assay, conditions: percent reduction in parasitemia day 3 post-infection; single po dose in standard suspending vehicle (SSV); mice
row,Compound,Activity (%) SSVpo
1,c1ccc(CNC2CCC3(CC2)OOC2(O3)C3CC4CC(C3)CC2C4)cc1 (stereo not drawn) [OZ160],43%
2,O=C(CO)N1CCC2(CC1)OOC1(O2)C2CC3CC(C2)CC1C3 (stereo not drawn) [OZ83],78%

# Same assay, conditions: single 10 mg/kg po in 3% ethanol and 7% Tween 80; untreated control 5.6 ± 0.3
row,Compound,Survival (days) po
1,CC1(C)CCC2(CC1)OOC1(O2)C2CC3CC(C2)CC1C3 (stereo not drawn) [OZ33],6.7 days
2,c1ccc(CNC2CCC3(CC2)OOC2(O3)C3CC4CC(C3)CC2C4)cc1 (stereo not drawn) [OZ160],6.3 days
3,CC1(C)COC2(CCC3(CC2)OOC2(O3)C3CCCC2CCC3)OC1 (stereo not drawn) [OZ68],5.0 days
4,O=C(CO)N1CCC2(CC1)OOC1(O2)C2CC3CC(C2)CC1C3 (stereo not drawn) [OZ83],7.0 days

# Same assay, conditions: single 10 mg/kg sc in 3% ethanol and 7% Tween 80; untreated control 5.6 ± 0.3
row,Compound,Survival (days) sc
1,CC1(C)CCC2(CC1)OOC1(O2)C2CC3CC(C2)CC1C3 (stereo not drawn) [OZ33],11.7 days
2,c1ccc(CNC2CCC3(CC2)OOC2(O3)C3CC4CC(C3)CC2C4)cc1 (stereo not drawn) [OZ160],12.0 days
3,CC1(C)COC2(CCC3(CC2)OOC2(O3)C3CCCC2CCC3)OC1 (stereo not drawn) [OZ68],5.3 days
4,O=C(CO)N1CCC2(CC1)OOC1(O2)C2CC3CC(C2)CC1C3 (stereo not drawn) [OZ83],8.0 days

# Same assay, conditions: single po dose in SSV; untreated control 5.6 ± 0.3
row,Compound,Survival (days) SSVpo
1,c1ccc(CNC2CCC3(CC2)OOC2(O3)C3CC4CC(C3)CC2C4)cc1 (stereo not drawn) [OZ160],6.7 days
2,O=C(CO)N1CCC2(CC1)OOC1(O2)C2CC3CC(C2)CC1C3 (stereo not drawn) [OZ83],6.3 days

# System: Schistosoma mansoni adult schistosomes (49-day-old)
# Experiment: effect on adult schistosomes (49-day-old) in mice
# Format: in vivo
# Settings: single 400 mg/kg per os
# Procedure: Mice were infected with 100 Schistosoma mansoni cercariae […]. Each group was treated per os with OZ compounds at single doses of 200, 400, and 600 mg/kg. […] All groups were killed 4 weeks after treatment and the liver and intestine were removed and separated. The liver and intestine were compressed and alive male and female worms could be seen and counted.
Compound,"% reduction of adult worms growth at day 49 after per os application of 400 mg/kg, TWR (%)","adult worms at day 49, per os 400 mg/kg, DEAD WORM (%)"
CC1(C)COC2(CCC3(CC2)OOC2(O3)C3CCCC2CCC3)OC1 (stereo not drawn) [OZ68],17%,0%
O=C(CO)N1CCC2(CC1)OOC1(O2)C2CC3CC(C2)CC1C3 (stereo not drawn) [OZ83],7%,19%

# System: P. falciparum NF54 strain (sensitive to standard antimalarials)
# Experiment: semiautomated microdilution assay, [3H]-hypoxanthine incorporation, NF54 strain
# Format: cell-based, Plasmodium falciparum
# Settings: NF54 strain, 72 h incubation
# How it was run: (§1)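 IC50 values come from logit regression of semiautomated microdilution data obtained on intraerythrocytic parasites drawn from asynchronous cultures.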
row,Compound,IC50 (ng/ml) NF54
1,CC1(C)CCC2(CC1)OOC1(O2)C2CC3CC(C2)CC1C3 (stereo not drawn) [OZ33],3.5 ng/mL
2,c1ccc(CNC2CCC3(CC2)OOC2(O3)C3CC4CC(C3)CC2C4)cc1 (stereo not drawn) [OZ160],0.87 ng/mL
3,CC1(C)COC2(CCC3(CC2)OOC2(O3)C3CCCC2CCC3)OC1 (stereo not drawn) [OZ68],49 ng/mL
4,O=C(CO)N1CCC2(CC1)OOC1(O2)C2CC3CC(C2)CC1C3 (stereo not drawn) [OZ83],0.60 ng/mL

# System: Schistosoma mansoni 21-day-old schistosomules
# Experiment: effect on 21-day-old schistosomules in mice
# Format: in vivo
# Settings: single 200 mg/kg per os, female mice
# Procedure: All groups were killed 4 weeks after treatment and the liver and intestine were removed and separated. The liver and intestine were compressed and alive male and female worms could be seen and counted. The effect of the compounds was evaluated by mean total and female worm burden.
Compound,"% reduction of schistosomule growth at day 21 after per os application of 200 mg/kg, FWR (%)","% reduction of schistosomule growth at day 21 after per os application of 200 mg/kg, TWR (%)"
CC1(C)CCC2(CC1)OOC1(O2)C2CC3CC(C2)CC1C3 (stereo not drawn) [OZ33],14%,28%
c1ccc(CNC2CCC3(CC2)OOC2(O3)C3CC4CC(C3)CC2C4)cc1 (stereo not drawn) [OZ160],0%,15%

# System: P. falciparum K1 strain (Thailand resistant to chloroquine)
# Experiment: semiautomated microdilution assay, [3H]-hypoxanthine incorporation, K1 strain
# Format: cell-based, Plasmodium falciparum
# Settings: K1 strain, 72 h incubation
# How it was run: as §1
row,Compound,IC50 (ng/ml) K1
1,CC1(C)CCC2(CC1)OOC1(O2)C2CC3CC(C2)CC1C3 (stereo not drawn) [OZ33],2.3 ng/mL
2,c1ccc(CNC2CCC3(CC2)OOC2(O3)C3CC4CC(C3)CC2C4)cc1 (stereo not drawn) [OZ160],0.70 ng/mL
3,CC1(C)COC2(CCC3(CC2)OOC2(O3)C3CCCC2CCC3)OC1 (stereo not drawn) [OZ68],41 ng/mL
4,O=C(CO)N1CCC2(CC1)OOC1(O2)C2CC3CC(C2)CC1C3 (stereo not drawn) [OZ83],0.30 ng/mL
